In paper PMC6487966, “Streptococcal dTDP‐L‐rhamnose biosynthesis enzymes: functional characterization and lead compound identification” (Molecular Microbiology, 2019):

Columns and labels:
Assay in all cases: bio-layer interferometry, dilution series on biotinylated recombinant enzyme
Format in all cases: binding
[1] = molecular target: GacA (RmlD, dTDP‐4‐dehydrorhamnose reductase) (Streptococcus pyogenes, UniProt Q9A0G6)
[2] = molecular target: T1, RmlB (dTDP‐glucose‐4,6‐dehydratase) (Streptococcus pyogenes, UniProt Q9A045)
T1 construct: gene cpsFQ

[3] = molecular target: T2, RmlC (dTDP‐4‐keto‐6‐deoxyglucose‐3,5‐epimerase) (Streptococcus pyogenes, UniProt Q5XCG7)
T2 construct: gene rfbC
T2 sequence (Q5XCG7 whole entry): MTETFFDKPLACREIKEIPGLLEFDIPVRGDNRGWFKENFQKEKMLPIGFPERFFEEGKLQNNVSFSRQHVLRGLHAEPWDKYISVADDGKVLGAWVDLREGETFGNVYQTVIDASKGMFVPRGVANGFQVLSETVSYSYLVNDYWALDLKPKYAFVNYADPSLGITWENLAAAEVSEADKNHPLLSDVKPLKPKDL

T1 sequence (Q9A045 entry or part of it): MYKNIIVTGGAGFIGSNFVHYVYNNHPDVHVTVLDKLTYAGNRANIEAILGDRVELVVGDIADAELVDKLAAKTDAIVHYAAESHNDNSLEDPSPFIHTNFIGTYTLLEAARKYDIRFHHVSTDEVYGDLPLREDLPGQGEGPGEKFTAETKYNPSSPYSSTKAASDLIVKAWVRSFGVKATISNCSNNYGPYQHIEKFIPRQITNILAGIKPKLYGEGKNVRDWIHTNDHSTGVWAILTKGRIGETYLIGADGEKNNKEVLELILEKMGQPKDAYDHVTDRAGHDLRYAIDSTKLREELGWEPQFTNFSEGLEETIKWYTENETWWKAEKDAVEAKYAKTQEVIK
Chain of GacA (RmlD, dTDP‐4‐dehydrorhamnose reductase) (Q9A0G6 entry or part of it): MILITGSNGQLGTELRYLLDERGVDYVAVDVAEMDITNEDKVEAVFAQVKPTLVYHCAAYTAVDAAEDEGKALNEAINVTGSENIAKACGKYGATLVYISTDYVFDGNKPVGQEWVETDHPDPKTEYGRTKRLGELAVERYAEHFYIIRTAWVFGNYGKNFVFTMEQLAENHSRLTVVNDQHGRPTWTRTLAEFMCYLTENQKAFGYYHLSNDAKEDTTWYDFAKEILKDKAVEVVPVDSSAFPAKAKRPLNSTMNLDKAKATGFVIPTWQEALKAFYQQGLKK

## O=C(O)c1ccc(-c2ccc(Cl)cc2)o1 [Ri03, 5‐(4‐chlorophenyl)‐2‐furoic acid]
[1]
  Kd: 300 µM
[2]
  Kd: 200 µM
[3]
  Kd: ~3000 µM
